Laboratory results from US20150105386A1, “4-(4-PYRIDINYL)-BENZAMIDES AND THEIR USE AS ROCK ACTIVITY MODULATORS” (AbbVie Deutschland GmbH & Co KG, priority 2007, published 2015).

Target: T1, hROCK-2 (Homo sapiens, UniProt O75116)
T1 construct: purchased Upstate
Experiment: ROCK-2 Assay (33P-ATP FlashPlate kinase assay, biotinylated S6 peptide)
Assay type: biochemical
Conditions: hROCK-2 0.8 nM, 5 μM ATP, 1.5 μM biotinylated S6 peptide, room temperature, 60 min
Protocol: The reaction is stopped by addition of 150 μl of 0.1 M EDTA in Dulbecco's PBS. 170 μl from each well are loaded onto a FlashPlate (PerkinElmer) and incubated at room temperature for 30 min.

T1 sequence (O75116 whole entry): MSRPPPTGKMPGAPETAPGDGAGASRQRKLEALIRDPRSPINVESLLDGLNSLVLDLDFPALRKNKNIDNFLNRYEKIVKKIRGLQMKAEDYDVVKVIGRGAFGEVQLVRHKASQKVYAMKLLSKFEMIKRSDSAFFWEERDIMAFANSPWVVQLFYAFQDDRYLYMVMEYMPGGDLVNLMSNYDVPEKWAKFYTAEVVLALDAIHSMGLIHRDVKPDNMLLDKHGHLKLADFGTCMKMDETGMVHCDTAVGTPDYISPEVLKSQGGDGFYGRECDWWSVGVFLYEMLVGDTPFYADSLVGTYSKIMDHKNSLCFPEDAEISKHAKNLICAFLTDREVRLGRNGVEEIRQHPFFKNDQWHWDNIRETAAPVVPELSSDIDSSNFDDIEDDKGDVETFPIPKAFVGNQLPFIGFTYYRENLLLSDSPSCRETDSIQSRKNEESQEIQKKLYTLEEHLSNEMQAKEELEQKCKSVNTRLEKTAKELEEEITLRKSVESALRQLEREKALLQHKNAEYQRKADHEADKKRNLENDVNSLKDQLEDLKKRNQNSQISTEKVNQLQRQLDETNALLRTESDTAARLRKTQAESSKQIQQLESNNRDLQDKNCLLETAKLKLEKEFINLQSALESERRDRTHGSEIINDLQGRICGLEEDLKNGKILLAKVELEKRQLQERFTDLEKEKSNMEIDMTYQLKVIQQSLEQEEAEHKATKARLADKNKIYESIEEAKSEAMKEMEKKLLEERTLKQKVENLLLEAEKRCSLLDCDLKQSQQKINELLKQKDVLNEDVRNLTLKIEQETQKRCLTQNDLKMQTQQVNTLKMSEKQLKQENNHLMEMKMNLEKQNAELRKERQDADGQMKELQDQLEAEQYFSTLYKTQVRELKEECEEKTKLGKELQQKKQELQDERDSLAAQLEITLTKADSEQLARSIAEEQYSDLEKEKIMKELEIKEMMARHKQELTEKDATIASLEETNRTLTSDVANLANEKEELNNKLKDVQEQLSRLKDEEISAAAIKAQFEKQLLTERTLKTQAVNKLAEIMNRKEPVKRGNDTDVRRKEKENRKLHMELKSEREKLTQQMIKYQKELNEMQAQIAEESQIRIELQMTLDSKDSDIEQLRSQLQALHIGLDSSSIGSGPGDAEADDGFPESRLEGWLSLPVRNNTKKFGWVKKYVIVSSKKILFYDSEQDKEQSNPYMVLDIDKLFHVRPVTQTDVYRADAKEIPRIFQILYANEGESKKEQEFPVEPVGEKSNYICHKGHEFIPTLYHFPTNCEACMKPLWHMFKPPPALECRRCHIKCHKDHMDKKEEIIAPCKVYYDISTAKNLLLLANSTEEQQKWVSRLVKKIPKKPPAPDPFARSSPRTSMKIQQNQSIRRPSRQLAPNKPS

Row | SMILES | Ki [nM]
1 | Cc1cnccc1-c1ccc(C(=O)N[C@H](C)c2ccc(F)cc2)cc1 [Example 180, N—[(R)-1-(4-fluoro-phenyl)-ethyl]-4-(3-methyl-pyridin-4-yl)-benzamide] | < 50
2 | Cc1cnccc1-c1ccc(C(=O)N[C@H](C)c2cccc(C(F)(F)F)c2)cc1 [Example 181, 4-(3-methyl-pyridin-4-yl)-N—[(R)-1-(3-trifluoromethyl-phenyl)-ethyl]-benzamide] | < 50
3 | Cc1cnccc1-c1ccc(C(=O)NC(CO)c2cc(Cl)cc(Cl)c2)cc1 (stereo not drawn) [Example 185, N-[1-(3,5-dichloro-phenyl)-2-hydroxy-ethyl]-4-(3-methyl-pyridin-4-yl)-benzamide] | 50 to 500
4 | O=C(NC(CO)c1cccc2ccccc12)c1ccc(-c2ccncc2)cc1 (stereo not drawn) [Example 187, N-(2-hydroxy-1-naphthalen-1-yl-ethyl)-4-pyridin-4-yl-benzamide] | < 50
5 | COC[C@@H](NC(=O)c1ccc(-c2ccncc2)cc1)c1ccccc1 [Example 188, N—((S)-2-methoxy-1-phenyl-ethyl)-4-pyridin-4-yl-benzamide] | < 50
6 | COc1ccc(C(C)NC(=O)c2ccc(-c3ccncc3)cc2)c2ccccc12 (stereo not drawn) [Example 189, N-[1-(4-methoxy-naphthalen-1-yl)-ethyl]-4-pyridin-4-yl-benzamide] | 50 to 500
7 | C[C@@H](NC(=O)c1ccc(-c2ccncc2)cc1Cl)c1ccccc1 [Example 191, 2-chloro-N—((R)-1-phenyl-ethyl)-4-pyridin-4-yl-benzamide] | 50 to 500
8 | C[C@@H](NC(=O)c1ccc(-c2ccncc2)cc1Cl)c1cccc2ccccc12 [Example 192, 2-chloro-N—((R)-1-naphthalen-1-yl-ethyl)-4-pyridin-4-yl-benzamide] | < 50
9 | C[C@@H](NC(=O)c1ccc(-c2ccncc2)c(F)c1)c1cccc2ccccc12 [Example 217, 3-fluoro-N—((R)-1-naphthalen-1-yl-ethyl)-4-pyridin-4-yl-benzamide] | < 50
10 | C[C@@H](NC(=O)c1ccc(-c2ccncc2)c(F)c1)c1ccc2ccccc2c1 [Example 229, 3-fluoro-N—((R)-1-naphthalen-2-yl-ethyl)-4-pyridin-4-yl-benzamide] | 50 to 500
11 | COc1cccc([C@H](C)NC(=O)c2ccc(-c3ccncc3)c(F)c2)c1 [Example 236, 3-fluoro-N—[(S)-1-(3-methoxy-phenyl)-ethyl]-4-pyridin-4-yl-benzamide] | 50 to 500
12 | COc1cccc([C@@H](C)NC(=O)c2ccc(-c3ccncc3)cc2Cl)c1 [Example 243, 2-chloro-N—[(R)-1-(3-methoxy-phenyl)-ethyl]-4-pyridin-4-yl-benzamide] | < 50
13 | COc1cccc([C@@H](C)NC(=O)c2ccc(-c3ccncc3)c(F)c2)c1 [Example 244, 3-fluoro-N—[(R)-1-(3-methoxy-phenyl)-ethyl]-4-pyridin-4-yl-benzamide] | < 50
14 | COc1cccc([C@@H](C)NC(=O)c2ccc(-c3ccncc3)cc2F)c1 [Example 245, 2-fluoro-N—[(R)-1-(3-methoxy-phenyl)-ethyl]-4-pyridin-4-yl-benzamide] | < 50
15 | COc1cccc([C@@H](C)NC(=O)c2ccc(-c3ccncc3F)cc2C)c1 [Example 246, 4-(3-fluoro-pyridin-4-yl)-N—[(R)-1-(3-methoxy-phenyl)-ethyl]-2-methyl-benzamide] | < 50
16 | COc1cccc([C@@H](C)NC(=O)c2ccc(-c3ccncc3F)cc2OC)c1 [Example 247, 4-(3-fluoro-pyridin-4-yl)-2-methoxy-N—[(R)-1-(3-methoxy-phenyl)-ethyl]-benzamide] | < 50
17 | COc1cccc([C@@H](C)NC(=O)c2ccc(-c3cc(F)ncc3C)cc2)c1 [Example 248, 4-(2-fluoro-5-methyl-pyridin-4-yl)-N—[(R)-1-(3-methoxy-phenyl)-ethyl]-benzamide] | < 50
18 | CCOc1cc(-c2ccncc2)ccc1C(=O)N[C@H](C)c1cccc(OC)c1 [Example 249, 2-ethoxy-N—[(R)-1-(3-methoxy-phenyl)-ethyl]-4-pyridin-4-yl-benzamide] | < 50
